The target in one assay is CK1ε (Homo sapiens (Human), UniProt P49674). Briefly: CK1ε kinase assay (Caliper LABCHIP electrophoretic separation of fluoresceinated peptide substrate and product). Type of assay: biochemical. Particulars: 200 pM enzyme, 50 μM ATP, 22 hours at room temperature. Put shortly:
(§1)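 Eleven-concentration compound series in kinase reactions run for 22 hours at room temperature. Terminated with EDTA, with product conversion read by electrophoretic separation. Non-linear regression gave IC50.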

Another assay concerns the target CK1δ (Homo sapiens (Human), UniProt P48730). Briefly: CK1δ kinase assay (Caliper LABCHIP electrophoretic separation of fluoresceinated peptide substrate and product). Particulars: 200 pM enzyme, 50 μM ATP, 22 hours at room temperature. Type of assay: biochemical. An outline of the steps:
as §1

The structures appear in SMILES notation.

The IC50 is the midpoint of a concentration-inhibition curve. The low end stands for greater potency in that assay, the high end for weaker potency in that assay.

CK1δ, sequence (P48730 whole entry): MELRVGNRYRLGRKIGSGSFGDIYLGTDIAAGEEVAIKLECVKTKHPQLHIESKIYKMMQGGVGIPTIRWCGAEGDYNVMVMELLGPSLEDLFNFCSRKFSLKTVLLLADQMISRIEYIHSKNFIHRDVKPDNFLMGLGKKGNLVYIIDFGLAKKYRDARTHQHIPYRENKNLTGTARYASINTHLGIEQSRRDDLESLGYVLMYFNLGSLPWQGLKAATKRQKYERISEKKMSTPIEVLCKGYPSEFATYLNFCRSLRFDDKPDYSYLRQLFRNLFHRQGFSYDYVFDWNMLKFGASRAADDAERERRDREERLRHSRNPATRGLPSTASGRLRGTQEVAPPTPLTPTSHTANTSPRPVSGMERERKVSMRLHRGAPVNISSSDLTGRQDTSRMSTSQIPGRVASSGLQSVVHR
CK1ε, sequence (P49674 whole entry): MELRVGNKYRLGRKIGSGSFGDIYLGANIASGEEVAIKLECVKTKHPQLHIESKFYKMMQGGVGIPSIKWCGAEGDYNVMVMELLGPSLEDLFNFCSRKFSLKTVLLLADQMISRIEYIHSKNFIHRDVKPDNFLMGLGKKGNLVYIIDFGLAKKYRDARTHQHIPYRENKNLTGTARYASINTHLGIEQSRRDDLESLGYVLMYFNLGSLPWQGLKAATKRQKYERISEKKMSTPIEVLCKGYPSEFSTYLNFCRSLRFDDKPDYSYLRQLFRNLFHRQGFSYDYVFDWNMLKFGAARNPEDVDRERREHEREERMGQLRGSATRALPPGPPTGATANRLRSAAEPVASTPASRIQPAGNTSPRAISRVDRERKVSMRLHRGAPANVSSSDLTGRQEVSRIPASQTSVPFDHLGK

In the case of `Cc1cc(-c2nc(C)n(C)c2-c2ccc3nc(NC(=O)c4ccnc(F)c4)cn3n2)ccc1F` [Compound 298, 2-fluoro-N-(6-(4-(4-fluoro-3-methylphenyl)-1,2-dimethyl-1H-imidazol-5-yl)imidazo[1,2-b]pyridazin-2-yl)isonicotinamide], the values for the IC50 against CK1ε and against CK1δ were 5.29 nM and 0.714 nM, respectively.

On to `Cc1cc(-c2nc(C)n(CCF)c2-c2ccc3nc(NC(=O)c4ccnc(F)c4)cn3n2)ccc1F` [Compound 299, 2-fluoro-N-(6-(4-(4-fluoro-3-methylphenyl)-1-(2-fluoroethyl)-2-methyl-1H-imidazol-5-yl)imidazo[1,2-b]pyridazin-2-yl) isonicotinamide], for which the results for the 50% inhibitory concentration (IC50) on CK1ε and against CK1δ were 0.76 nM and 0.186 nM, respectively.

In the case of `Cc1ccc(-c2nc(C)n(C)c2-c2ccc3nc(NC(=O)c4ccnc(F)c4)cn3n2)cc1` [Compound 300, N-(6-(1,2-dimethyl-4-(p-tolyl)-1H-imidazol-5-yl)imidazo[1,2-b]pyridazin-2-yl)-2-fluoroiso-nicotinamide], the values for the IC50 at CK1ε and against CK1δ were 34.3 nM and 1.8 nM, respectively.

Turning to `Cc1nc(-c2ccc(F)cc2)c(-c2ccc3nc(NC(=O)c4cncs4)cn3n2)n1C` [Compound 303, N-(6-(4-(4-fluorophenyl)-1,2-dimethyl-1H-imidazol-5-yl)imidazo[1,2-b]pyridazin-2-yl)thiazole-5-carboxamide], the IC50 against CK1ε was found to be 4.4 nM; against CK1δ, 3.9 nM.

Consider `Cc1nc(-c2ccc(F)cc2)c(-c2ccc3nc(NC(=O)c4coc(-c5ccncc5)n4)cn3n2)n1C` [Compound 304, N-(6-(4-(4-fluorophenyl)-1,2-dimethyl-1H-imidazol-5-yl)imidazo[1,2-b]pyridazin-2-yl)-2-(pyridin-4-yl)oxazole-4-carboxamide], for which the values for the IC50 against CK1ε and against CK1δ were 48.5 nM and 3.44 nM, respectively.

For `Cc1nc(-c2ccncc2)sc1C(=O)Nc1cn2nc(-c3c(-c4ccc(F)cc4)nc(C)n3C)ccc2n1` [Compound 308, N-(6-(4-(4-fluorophenyl)-1,2-dimethyl-1H-imidazol-5-yl)imidazo[1,2-b]pyridazin-2-yl)-4-methyl-2-(pyridin-4-yl) thiazole-5-carboxamide], the IC50 against CK1ε was determined as 5.26 nM; at CK1δ, 0.322 nM.

For `Cc1nc(-c2ccc(F)cc2)c(-c2ccc3nc(NC(=O)c4cnc5ccccc5n4)cn3n2)n1C` [Compound 310, N-(6-(4-(4-fluorophenyl)-1,2-dimethyl-1H-imidazol-5-yl)imidazo[1,2-b]pyridazin-2-yl) quinoxaline-2-carboxamide], the results for the IC50 at CK1ε and against CK1δ were 8.37 nM and 1.03 nM, respectively.

On to `Cc1nc(-c2ccc(F)cc2)c(-c2ccc3nc(NC(=O)c4cc5ccccc5cn4)cn3n2)n1C` [Compound 311, N-(6-(4-(4-fluorophenyl)-1,2-dimethyl-1H-imidazol-5-yl)imidazo[1,2-b]pyridazin-2-yl) isoquinoline-3-carboxamide], for which the IC50 against CK1ε is 46.9 nM; against CK1δ, 33.9 nM.

Regarding `Cc1nc(-c2ccc(F)cc2)c(-c2ccc3nc(NC(=O)c4ccc5ncccc5n4)cn3n2)n1C` [Compound 312, N-(6-(4-(4-fluorophenyl)-1,2-dimethyl-1H-imidazol-5-yl)imidazo[1,2-b]pyridazin-2-yl)-1,5-naphthyridine-2-carboxamide], the IC50 stood at 19.6 nM at CK1ε and 8.38 nM at CK1δ.

`Cc1nc(-c2ccc(F)cc2)c(-c2ccc3nc(NC(=O)c4ccc5ccncc5c4)cn3n2)n1C` [Compound 313, N-(6-(4-(4-fluorophenyl)-1,2-dimethyl-1H-imidazol-5-yl)imidazo[1,2-b]pyridazin-2-yl)isoquinoline-7-carbox-amide]: the IC50 stood at 1.89 nM at CK1ε and 0.691 nM on CK1δ.

As for `Cc1nc(-c2ccc(F)cc2)c(-c2ccc3nc(NC(=O)c4ccc(-n5cccn5)nc4)cn3n2)n1C` [Compound 314, N-(6-(4-(4-fluorophenyl)-1,2-dimethyl-1H-imidazol-5-yl)imidazo[1,2-b]pyridazin-2-yl)-6-(1H-pyrazol-1-yl) nicotinamide], the IC50 at CK1ε amounted to 3.1 nM; on CK1δ, 0.479 nM.

For the compound `Cc1nc(-c2ccc(F)cc2)c(-c2ccc3nc(NC(=O)[C@@H]4CCCN4)cn3n2)n1C` [Compound 315, (S)-N-(6-(4-(4-fluorophenyl)-1,2-dimethyl-1H-imidazol-5-yl)imidazo[1,2-b]pyridazin-2-yl)pyrrolidine-2-carbox-amide], the IC50 on CK1ε came to 375 nM; on CK1δ, 19.8 nM.

On to `Cc1nc(-c2ccc(F)cc2)c(-c2ccc3nc(NC(=O)[C@@H]4CC(F)(F)CN4)cn3n2)n1C` [Compound 316, (S)-4,4-difluoro-N-(6-(4-(4-fluorophenyl)-1,2-dimethyl-1H-imidazol-5-yl)imidazo[1,2-b]pyridazin-2-yl)pyrrolidine-2-carboxamide], for which the IC50 on CK1ε is 39.4 nM; against CK1δ, 3.09 nM.

Take `Cc1nc(-c2ccc(F)cc2)c(-c2ccc3nc(NC(=O)c4cc5ccccc5[nH]4)cn3n2)n1C` [Compound 319, N-(6-(4-(4-fluorophenyl)-1,2-dimethyl-1H-imidazol-5-yl)imidazo[1,2-b]pyridazin-2-yl)-1H-indole-2-carboxamide]: the IC50 was found to be 12.1 nM at CK1ε and 1.73 nM against CK1δ.

With `Cc1nc(-c2ccc(F)cc2)c(-c2ccc3nc(NC(=O)c4ccnc(F)c4)cn3n2)n1C` [Compound 320, 2-fluoro-N-(6-(4-(4-fluoro-phenyl)-1,2-dimethyl-1H-imidazol-5-yl)imidazo[1,2-b]pyridazin-2-yl)isonicotin-amide], the IC50 on CK1ε was 1.86 nM; on CK1δ, 0.274 nM.

Consider `Cc1nc(-c2ccc(F)cc2)c(-c2ccc3nc(NC(=O)c4ccc(F)nc4)cn3n2)n1C` [Compound 321, 6-fluoro-N-(6-(4-(4-fluoro-phenyl)-1,2-dimethyl-1H-imidazol-5-yl)imidazo[1,2-b]pyridazin-2-yl)nicotinamide], for which the values for the half-maximal inhibitory concentration (IC50) at CK1ε and at CK1δ were 1.97 nM and 0.152 nM, respectively.

In the case of `Cc1nc(-c2ccc(F)cc2)c(-c2ccc3nc(NC(=O)c4ccc(O)nc4)cn3n2)n1C` [Compound 322, N-(6-(4-(4-fluorophenyl)-1,2-dimethyl-1H-imidazol-5-yl)imidazo[1,2-b]pyridazin-2-yl)-6-hydroxynicotinamide], the IC50 came to 4.76 nM against CK1ε and 0.473 nM against CK1δ.

As for `Cc1nc(-c2ccc(F)cc2)c(-c2ccc3nc(NC(=O)c4ccnc(N5CCOCC5)c4)cn3n2)n1C` [Compound 324, N-(6-(4-(4-fluorophenyl)-1,2-dimethyl-1H-imidazol-5-yl)imidazo[1,2-b]pyridazin-2-yl)-2-morpholinoisonicotin-amide], the IC50 worked out at 1.91 nM on CK1ε and 0.344 nM at CK1δ.

Consider `Cc1nc(-c2ccc(F)cc2)c(-c2ccc3nc(NC(=O)c4cccc(-c5cccnc5)c4)cn3n2)n1C` [Compound 325, N-(6-(4-(4-fluorophenyl)-1,2-dimethyl-1H-imidazol-5-yl)imidazo[1,2-b]pyridazin-2-yl)-3-(pyridin-3-yl) benzamide], for which the IC50 against CK1ε came to 1.44 nM; against CK1δ, 0.323 nM.

Regarding `Cc1cc[nH]c1C(=O)Nc1cn2nc(-c3c(-c4ccc(F)cc4)nc(C)n3C)ccc2n1` [Compound 326, N-(6-(4-(4-fluorophenyl)-1,2-dimethyl-1H-imidazol-5-yl)imidazo[1,2-b]pyridazin-2-yl)-3-methyl-1H-pyrrole-2-carboxamide], the results for the IC50 against CK1ε and on CK1δ were 12.3 nM and 2.68 nM, respectively.

In the case of `Cc1nc(-c2ccc(F)cc2)c(-c2ccc3nc(NC(=O)c4cc5cnccc5[nH]4)cn3n2)n1C` [Compound 327, N-(6-(4-(4-fluorophenyl)-1,2-dimethyl-1H-imidazol-5-yl)imidazo[1,2-b]pyridazin-2-yl)-1H-pyrrolo[3,2-c] pyridine-2-carboxamide], the IC50 against CK1ε is 6.08 nM; at CK1δ it was 0.676 nM.

Regarding `Cc1nc(-c2ccc(F)cc2)c(-c2ccc3nc(NC(=O)c4cccc5ncccc45)cn3n2)n1C` [Compound 328, N-(6-(4-(4-fluorophenyl)-1,2-dimethyl-1H-imidazol-5-yl)imidazo[1,2-b]pyridazin-2-yl)-5-quinolinecarboxamide], the IC50 against CK1ε was 2.13 nM; on CK1δ it was 0.335 nM.

In the case of `Cc1nc(-c2ccc(F)cc2)c(-c2ccc3nc(NC(=O)c4ccc(-c5ccc(Cl)cc5)[nH]4)cn3n2)n1C` [Compound 329, 5-(4-chlorophenyl)-N-(6-(4-(4-fluorophenyl)-1,2-di-methyl-1H-imidazol-5-yl)imidazo[1,2-b]pyridazin-2-yl)-1H-pyrrole-2-carboxamide], the half-maximal inhibitory concentration (IC50) on CK1ε was 18.5 nM; against CK1δ it was 3.47 nM.

For the compound `Cc1nc(-c2ccc(F)cc2)c(-c2ccc3nc(NC(=O)c4cccc5cnccc45)cn3n2)n1C` [Compound 330, N-(6-(4-(4-fluorophenyl)-1,2-dimethyl-1H-imidazol-5-yl)imidazo[1,2-b]pyridazin-2-yl)-5-isoquinoline-carboxamide], the IC50 against CK1ε was 3.34 nM; against CK1δ it was 0.373 nM.

For the compound `Cc1nc(-c2ccc(F)cc2)c(-c2ccc3nc(NC(=O)c4cccc5ccncc45)cn3n2)n1C` [Compound 331, N-(6-(4-(4-fluorophenyl)-1,2-dimethyl-1H-imidazol-5-yl)imidazo[1,2-b]pyridazin-2-yl)-8-isoquinoline-carboxamide], the IC50 stood at 1.45 nM on CK1ε and 0.249 nM on CK1δ.

For `Cc1nc(-c2ccc(F)cc2)c(-c2ccc3nc(NC(=O)c4cc5ccc(F)cc5[nH]4)cn3n2)n1C` [Compound 332, 6-fluoro-N-(6-(4-(4-fluoro-phenyl)-1,2-dimethyl-1H-imidazol-5-yl)imidazo[1,2-b]pyridazin-2-yl)-1H-indole-2-carboxamide], the values for the IC50 at CK1ε and on CK1δ were 6.86 nM and 0.87 nM, respectively.

As for `Cc1nc(-c2ccc(F)cc2)c(-c2ccc3nc(NC(=O)c4ccc(-c5ccccc5)[nH]4)cn3n2)n1C` [Compound 333, N-(6-(4-(4-fluorophenyl)-1,2-dimethyl-1H-imidazol-5-yl)imidazo[1,2-b]pyridazin-2-yl)-5-phenyl-1H-pyrrole-2-carboxamide], the IC50 on CK1ε stood at 3.28 nM; against CK1δ, 1.33 nM.

(Values after patent US9556179B2 (BRISTOL-MYERS SQUIBB COMPANY, priority 2012, dated 2017).)
